# Measurements as given in patent US4877796A (priority 1986, dated 1989).
# Where two headings read alike, the source gives them in different places.
# System: disturbances of the cardiac rhythm (aconitine) in the rat
# Type: in vivo
# Settings: for Precentage of the protraction of time: aconitine perfusion five minutes after administration, compared with controls
structure (smiles),measurement,setting,value
"CN1CCC[C@H]2CCC[C@@H](N(C)C(=O)Cc3ccc(Cl)c(Cl)c3)[C@@H]21 [Example 2, [4aRS(4aα,8α,8aα)](+) N-(decahydro-1-methyl-8-quinolinyl)-3,4-dichloro-N-methyl-benzene-acetamide]",Precentage of the protraction of time,2.5 mg/kg intravenously,16%
same,Precentage of the protraction of time,5 mg/kg intravenously,28%
same,Precentage of the protraction of time,10 mg/kg intravenously,43%
same,antiarrythmic properties (in words),"intravenously, aconitine model",good antiarrythmic properties
